Dpm bound to protein and Ki data for two molecules are collected here from ChEMBL document CHEMBL1121774, “Interaction of 5-ethynyl-2'-deoxyuridylate with thymidylate synthetase” (J Med Chem, 1981).

Test [1] deals with T1, Thymidylate synthase (Lactobacillus casei) (UniProt P00469).
T1 sequence (whole entry): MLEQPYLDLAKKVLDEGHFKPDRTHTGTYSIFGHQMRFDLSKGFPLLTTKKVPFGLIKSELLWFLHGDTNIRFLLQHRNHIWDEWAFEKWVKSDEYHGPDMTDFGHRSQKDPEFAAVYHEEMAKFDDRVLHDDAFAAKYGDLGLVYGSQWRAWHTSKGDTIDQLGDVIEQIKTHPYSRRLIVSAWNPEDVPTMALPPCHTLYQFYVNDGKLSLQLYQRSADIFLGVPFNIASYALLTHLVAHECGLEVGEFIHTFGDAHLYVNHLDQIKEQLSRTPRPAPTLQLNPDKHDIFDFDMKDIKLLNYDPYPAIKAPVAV
Description: Binding of 0.1 mM [14C]5,10-CH2-H4 folate to 2.5 nmol dTMP synthetase from Lactobacillus casei. The conditions noted are these: Lacticaseibacillus casei.

For a further test, the target named is T2, Thymidylate synthase (Lactobacillus casei, UniProt P00469).
T2 sequence (P00469 whole entry): T1 sequence (whole entry)
The test can be described thus: The compound was tested for inhibition of dTMP synthetase from Lactobacillus casei. Set-up: species or system Lacticaseibacillus casei.

The molecule `O=c1[nH]c(=O)n([C@H]2C[C@H](O)[C@@H](COP(=O)(O)O)O2)cc1F` returned a dpm bound to protein in test [1] of 15500.

Usually Ki stands for a dissociation constant, usually derived from enzyme kinetics or from competition with a known ligand. At Thymidylate synthase, `C#Cc1cn([C@H]2C[C@H](O)[C@@H](COP(=O)(O)O)O2)c(=O)[nH]c1=O` had a Ki of 2.7 µM. In test [1], this molecule came in with a dpm bound to protein of 1110.
